Results as given in patent US20260242330A1, “USE OF AN AMANTADINE MONONITRATE COMPOUND IN MANUFACTURE OF A MEDICAMENT FOR THE PREVENTION AND TREATMENT OF HYPERTENSION” (GUANGZHOU MAGPIE PHARMACEUTICALS CO., LTD., priority 2022, published 2026).

What was measured:
Format in all cases: in vivo, human
[1] = Pharmacokinetic test of MN-08 in clinical trial, single oral dose
Method: In the clinical trial of amantadine mononitrate compound MN-08, the pharmacokinetic test included a total of 8 dose groups (6 mg, 12 mg, 42 mg, 60 mg, 78 mg, 96 mg, 114 mg, and 132 mg).
The subjects received a single oral dose of MN-08 at doses of 6 mg, 12 mg, 42 mg, 60 mg, 78 mg, 96 mg, 114 mg, and 132 mg, respectively. […] Most existing antihypertensive drugs have a short half-life and require frequent administration, resulting in poor patient compliance. In contrast, the amantadine mononitrate compound MN-08 of the present invention has a half-life of more than 20 hours, a long drug action time, and can reduce the number of administration times and improve patient compliance compared to other existing hypertensive drugs.

[2] = tested on: blood pressure of subjects; assay: Effect of multiple administrations of MN-08 on blood pressure of subjects (7 days); settings: for DP / SP: Subject 14; for DP: baseline 84 mmHg; for SP: baseline 122 mmHg
From the text: All subjects in the following embodiments have signed informed consent forms, which comply with medical ethics regulations. According to the relevant provisions of Chinese Guidelines for the Prevention and Treatment of Hypertension (2018 Revision), the values measured for hypertension are the average blood pressure measured three times on a different day without the use of antihypertensive drugs. Therefore, in this embodiment, the baseline blood pressure of the subjects before administration is set as the average blood pressure measured at three different times: screening period, occupancy period, and 1 hour before administration, as shown in Tables 1 to 3.
Multiple dosing trials: Participants in each dose group fasted for at least 10 hours before administration, without water deprivation overnight. Each group of subjects received oral administration of the test drug on an empty stomach from day 1 to day 6, twice a day (with an interval of 12 hours and at least 1 hour on an empty stomach before the second administration), and only once in the morning on day 7. A total of 13 doses were administered. The first administration time every day is around 8 am, taken with 240 mL of water. Taking subject 14 as an example, the effect of multiple doses of MN-08 (7 days) on subject blood pressure was investigated.

[3] = tested on: blood pressure in subjects with a DP≥90 mmHg; assay: Effect of MN-08 on blood pressure in subjects with a DP≥90 mmHg; settings: single or multiple administration as in Example 2
From the text: From this, it can be seen that making diastolic pressure drop more than systolic pressure drop is the characteristic of MN-08.

[4] = 12 mg twice a day, D 1, 2 hrs after 2nd adm.
[5] = 12 mg twice a day, D 1, 4 hrs after 1st adm.
[6] = 12 mg twice a day, D 1, 8 hrs after 1st adm.
[7] = 12 mg twice a day, D 2, 2 hrs after 2nd adm.
[8] = 12 mg twice a day, D 2, 4 hrs after 1st adm.
[9] = 12 mg twice a day, D 2, 8 hrs after 1st adm.
[10] = 12 mg twice a day, D 3, 2 hrs after 2nd adm.
[11] = 12 mg twice a day, D 3, 4 hrs after 1st adm.
[12] = 12 mg twice a day, D 3, 8 hrs after 1st adm.
[13] = 12 mg twice a day, D 4, 2 hrs after 2nd adm.
[14] = 12 mg twice a day, D 4, 4 hrs after 1st adm.
[15] = 12 mg twice a day, D 4, 8 hrs after 1st adm.
[16] = 12 mg twice a day, D 5, 2 hrs after 2nd adm.
[17] = 12 mg twice a day, D 5, 4 hrs after 1st adm.
[18] = 12 mg twice a day, D 5, 8 hrs after 1st adm.
[19] = 12 mg twice a day, D 6, 2 hrs after 2nd adm.
[20] = 12 mg twice a day, D 6, 4 hrs after 1st adm.
[21] = 12 mg twice a day, D 6, 8 hrs after 1st adm.
[22] = 12 mg, once on D 7 after 6 days twice a day, D 7, 4 hrs after adm.
[23] = 12 mg, once on D 7 after 6 days twice a day, D 7, 8 hrs after adm.
[24] = 12 mg, once on D 7 after 6 days twice a day, D 7, 12 hrs after adm.

## CCC12CC3CC(N)(C1)CC(CO[N+](=O)[O-])(C3)C2 (stereo not shown) [MN-08]
[1]; human, in vivo, po, single oral administration, dose range 6 mg to 132 mg, t1/2 extends with increasing dosage
  half-life: 20 to 30 h
[1]; single oral dose, 6 mg to 132 mg groups
  time at which peak concentration was reached: 2.5 to 6.5 h
[2]; [4]
  DP: 73 mmHg
  SP: 113 mmHg
[2]; [5]
  DP: 81 mmHg
  SP: 122 mmHg
[2]; [6]
  DP: 74 mmHg
  SP: 114 mmHg
[2]; [7]
  DP: 77 mmHg
  SP: 107 mmHg
[2]; [8]
  DP: 76 mmHg
  SP: 115 mmHg
[2]; [9]
  DP: 68 mmHg
  SP: 117 mmHg
[2]; [10]
  DP: 73 mmHg
  SP: 109 mmHg
[2]; [11]
  DP: 74 mmHg
  SP: 114 mmHg
[2]; [12]
  DP: 82 mmHg
  SP: 111 mmHg
[2]; [13]
  DP: 73 mmHg
  SP: 109 mmHg
[2]; [14]
  DP: 73 mmHg
  SP: 109 mmHg
[2]; [15]
  DP: 70 mmHg
  SP: 107 mmHg
[2]; [16]
  DP: 74 mmHg
  SP: 114 mmHg
[2]; [17]
  DP: 69 mmHg
  SP: 106 mmHg
[2]; [18]
  DP: 62 mmHg
  SP: 97 mmHg
[2]; [19]
  DP: 77 mmHg
  SP: 125 mmHg
[2]; [20]
  DP: 77 mmHg
  SP: 118 mmHg
[2]; [21]
  DP: 63 mmHg
  SP: 112 mmHg
[2]; [22]
  DP: 77 mmHg
  SP: 108 mmHg
[2]; [23]
  DP: 62 mmHg
  SP: 102 mmHg
[2]; [24]
  DP: 62 mmHg
  SP: 103 mmHg
[2]; twice a day for 7 days, decrease in diastolic greater than in systolic pressure
  both systolic and diastolic pressure of the subjects: reduced
[3]
  effect on diastolic pressure: significant effect on reducing diastolic pressure
